PMC2263054, “Functional evolution of the vitamin D and pregnane X receptors” (BMC Evolutionary Biology, 2007)
“Also recorded” adds a separate entry of the source. Counter-ions that a name gives are not always drawn. Like-named read-outs stand apart in the source and are kept apart here.

What was measured:
Type in all cases: cell-based
[1] = target: T1, Xenopus laevis VDR (Xenopus laevis, UniProt O13124); experiment: luciferase reporter transactivation assay in HepG2-NTCP cells, GAL4/xlVDR LBD chimera with tk-UAS-Luc; conditions: screening for activators, at least three concentrations of each drug
T1 sequence (O13124 90-422): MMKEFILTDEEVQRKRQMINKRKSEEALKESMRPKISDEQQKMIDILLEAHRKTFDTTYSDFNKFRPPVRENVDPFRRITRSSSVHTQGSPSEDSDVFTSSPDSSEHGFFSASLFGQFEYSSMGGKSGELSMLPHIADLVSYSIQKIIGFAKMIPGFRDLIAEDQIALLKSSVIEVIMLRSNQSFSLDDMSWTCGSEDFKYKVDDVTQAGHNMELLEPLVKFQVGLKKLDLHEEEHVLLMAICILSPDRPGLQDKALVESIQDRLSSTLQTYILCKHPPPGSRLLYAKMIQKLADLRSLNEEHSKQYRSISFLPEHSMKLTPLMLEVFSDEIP

[2] = target: T2, Zebrafish VDR (Danio rerio, UniProt Q9PTN2); experiment: luciferase reporter transactivation assay in HepG2-NTCP cells, GAL4/zfVDR LBD chimera with tk-UAS-Luc; conditions: screening for activators, at least three concentrations of each drug
T2 sequence (Q9PTN2 121-453): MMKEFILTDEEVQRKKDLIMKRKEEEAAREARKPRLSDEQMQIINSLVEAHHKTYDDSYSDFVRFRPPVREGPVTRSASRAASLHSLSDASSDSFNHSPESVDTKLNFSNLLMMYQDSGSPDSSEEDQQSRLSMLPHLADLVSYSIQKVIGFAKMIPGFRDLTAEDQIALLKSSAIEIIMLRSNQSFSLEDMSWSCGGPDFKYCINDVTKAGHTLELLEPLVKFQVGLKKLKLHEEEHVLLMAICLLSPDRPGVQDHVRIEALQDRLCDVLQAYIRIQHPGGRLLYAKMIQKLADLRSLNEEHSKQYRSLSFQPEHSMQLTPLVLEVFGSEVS

[3] = target: T3, Sea lamprey VDR (Petromyzon marinus, UniProt Q7ZZY9)
T3 sequence (Q7ZZY9 92-406): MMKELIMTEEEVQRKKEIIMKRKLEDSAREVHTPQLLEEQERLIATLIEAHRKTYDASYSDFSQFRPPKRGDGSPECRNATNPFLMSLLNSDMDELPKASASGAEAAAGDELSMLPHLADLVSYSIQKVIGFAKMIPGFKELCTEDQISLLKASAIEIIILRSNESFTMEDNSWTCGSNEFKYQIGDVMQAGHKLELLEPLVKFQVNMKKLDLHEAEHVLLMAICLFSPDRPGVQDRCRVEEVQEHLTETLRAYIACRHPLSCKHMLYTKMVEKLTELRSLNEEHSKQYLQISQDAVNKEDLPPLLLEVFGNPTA

[4] = screening for activators, at least three concentrations of each drug

Compound	Effect on Xenopus laevis VDR [1]	Effect on zebrafish VDR [2]	Effect on sea lamprey VDR [3, 4]	Effect on Xenopus laevis VDR ([1]; listed as testosterone)	Effect on zebrafish VDR ([2]; listed as testosterone)	Effect on sea lamprey VDR [3]
CC(=O)[C@H]1CC[C@H]2[C@@H]3CC[C@@H]4C[C@H](O)CC[C@]4(C)[C@H]3CC[C@]12C [5b-Pregnan-3a-ol-20-one]	No effect	No effect	No effect			
C[C@]12CC[C@@H](O)C[C@H]1CC[C@@H]1[C@@H]2[C@@H](O)C[C@@]2(C)[C@H]1CC[C@]2(O)C(=O)CO [Tetrahydrocortisol]	No effect	No effect	No effect			
CCCCCCCCCCCCCCSCC(=O)O [Tetradecylthioacetic acid]	No effect	No effect	No effect			
C[C@H](CCC(=O)O)[C@H]1CC[C@H]2[C@@H]3[C@@H](O)[C@H](O)[C@@H]4C[C@H](O)CC[C@]4(C)[C@H]3CC[C@]12C [w-Muricholic acid]	No effect	No effect	No effect			
C[C@H](CCC(=O)O)[C@H]1CC[C@H]2[C@@H]3[C@H](O)[C@@H](O)[C@@H]4C[C@H](O)CC[C@]4(C)[C@H]3CC[C@]12C [a-Muricholic acid]	No effect	No effect	No effect			
CC(=O)N[C@@H](CSC/C=C(\C)CC/C=C(\C)CC/C=C(\C)CCC=C(C)C)C(=O)O [Acetyl-geranylgeranyl-cysteine]	No effect	No effect	No effect			
O=C(O)CCc1cc(I)c(O)c(I)c1 [3,5-Diiodo-4-hydroxyphenylpropionic acid]	No effect	No effect	No effect			
COC(C)(C)CCCC(C)C/C=C/C(C)=C/C(=O)O (stereo not shown) [Methoprene acid]		No effect	No effect			
CC(C)=CCC/C(C)=C/CC/C(C)=C/CC/C(C)=C/CC1=C(C)C(=O)c2ccccc2C1=O [Vitamin K2]	No effect	No effect	No effect			
CC1=C(/C=C/C(C)=C/C=C/C(C)=C/C=C/C=C(C)/C=C/C=C(C)/C=C/C2=C(C)CCCC2(C)C)C(C)(C)CCC1 [Beta-carotene]	No effect	No effect	No effect			
CC(C)[C@@H](O)CC[C@@H](C)[C@H]1CC[C@H]2[C@@H]3CC=C4C[C@@H](O)CC[C@]4(C)[C@H]3CC[C@]12C [24(S)-Hydroxycholesterol]	No effect	No effect	No effect			
C[C@H](CCC(=O)O)[C@H]1CC[C@H]2[C@@H]3[C@H](O)C[C@H]4C[C@H](O)CC[C@]4(C)[C@H]3C[C@H](O)[C@]12C [Allocholic acid]	No effect	No effect	No effect			
CC1=C(/C=C/C(C)=C/C=C/C(C)=C/C(=O)O)C(C)(C)CCC1O (stereo not shown) [4-Hydroxretinoic acid]	No effect	No effect	No effect			
C[C@]12CC[C@@H](O)C[C@H]1CC[C@@H]1[C@@H]2C(=O)C[C@@]2(C)[C@H]1CC[C@]2(O)[C@@H](O)CO [Cortolone]	No effect	No effect	No effect			
O=C(O)Cc1cccc(OCCCN(Cc2cccc(C(F)(F)F)c2Cl)CC(c2ccccc2)c2ccccc2)c1 [GW3965]	None of these three VDRs were activated; also recorded: No effect	None of these three VDRs were activated; also recorded: No effect	None of these three VDRs were activated; also recorded: No effect			
C[C@]12CC[C@@H]3c4ccc(OS(=O)(=O)O)cc4CC[C@H]3[C@@H]1CCC2=O [Estrone 3-sulfate]	No effect	No effect	No effect			
CC(C(=O)O)c1ccc(-c2ccccc2)c(F)c1 (stereo not shown) [Flurbiprofen]	No effect	No effect	No effect			

Compound	Effect on Xenopus laevis VDR [1]	Effect on zebrafish VDR [2]	Effect on sea lamprey VDR [3, 4]	Effect on Xenopus laevis VDR ([1]; listed as testosterone)	Effect on zebrafish VDR ([2]; listed as testosterone)	Effect on sea lamprey VDR [3]
C[C@H](CC(=O)O)[C@H]1CC[C@H]2[C@@H]3CC[C@@H]4C[C@H](O)CC[C@]4(C)[C@H]3C[C@H](O)[C@]12C [23-Nordeoxycholic acid]	No effect	No effect	No effect			
C[C@H](CCC(=O)NCCS(=O)(=O)[O-])[C@H]1CC[C@H]2[C@@H]3C[C@H](O)[C@@H]4C[C@H](O)CC[C@]4(C)[C@H]3CC[C@]12C.[Na+] [Taurohyodeoxycholic acid]	No effect	No effect	No effect			
COC(=O)/C=C/c1cccc(N(Cc2ccc(-c3ccc(N(C)C)cc3)cc2)C(=O)C2CCCCC2)c1 [fexaramine]	None of these three VDRs were activated	None of these three VDRs were activated	None of these three VDRs were activated			
C[C@]12CC[C@H]3[C@@H](CCC4=CC(=O)CC[C@@]43C)[C@@H]1CC[C@@H]2O [Testosterone]	No effect	No effect		None of these three VDRs were activated	None of these three VDRs were activated	
CC(C)(Oc1ccc(Cl)cc1)C(=O)O [Clofibric acid]	No effect	No effect	No effect			
C[C@]12CCC(=O)C=C1CC[C@@H]1[C@@H]2CC[C@@]2(C)[C@H]1CC[C@]2(O)C(=O)CO [4-Pregnen-17,21-diol-3,20-dione]	No effect	No effect	No effect			
C/C=C1\C(=O)C[C@H]2[C@@H]3CCC4=CC(=O)CC[C@]4(C)[C@H]3CC[C@]12C [Z-Guggulsterone]	No effect	No effect	No effect			
C[C@]12CC[C@H](OS(=O)(=O)O)CC1=CC[C@@H]1[C@@H]2CC[C@]2(C)C(=O)CC[C@@H]12 [DHEA sulfate]	No effect	No effect	No effect			
C[C@]12CC[C@H](O)C[C@@H]1CC[C@@H]1[C@@H]2CC[C@]2(C)C(=O)CC[C@@H]12 [5a-androstan-3b-ol-17-one]	No effect	No effect	No effect			
C[C@@H](O)[C@H]1CC[C@H]2[C@@H]3CC[C@@H]4C[C@H](O)CC[C@]4(C)[C@H]3CC[C@]12C [5b-Pregnan-3a,20b,diol]	No effect	No effect	No effect			
S-Farnesyl-L-cysteine methyl ester		No effect	No effect			
C[C@]12CCC(=O)C=C1CC[C@@H]1[C@@H]2CC[C@]2(C)C(=O)CC[C@@H]12 [Androstenedione]		No effect	No effect			
CC1=C(/C=C/C(C)=C/C=C/C(C)=C/CO)C(C)(C)CCC1 [all-trans-Retinol]		No effect				
C[C@]12CC[C@H]3[C@@H](CCC4=CC(=O)CC[C@@]43C)[C@@H]1CC[C@H]2O [Epitestosterone]	No effect	No effect				
CC#C[C@]1(O)CC[C@H]2[C@@H]3CCC4=CC(=O)CCC4=C3[C@@H](c3ccc(N(C)C)cc3)C[C@@]21C [Mifepristone]	No effect					No effect
C[C@H](CCC(=O)O)[C@H]1CC[C@H]2[C@@H]3[C@H](O)C[C@@H]4C[C@H](O)CC[C@]4(C)[C@H]3C[C@H](O)[C@]12C [Cholic acid]	No effect	No effect				
C[C@]12CC[C@@H]3c4ccc(O)cc4CC[C@H]3[C@@H]1CCC2=O [Estrone]		No effect	No effect			
